Source: patent US12570613B2, “Imidazoquinoline or benzoindazolone compound and intermediate for preparing same” (LMITO THERAPEUTICS INC., priority 2020, dated 2026)

Target: NQO1 protein (Homo sapiens, UniProt P15559)
Experiment: In vitro NQO1 enzyme activity assay (cytochrome C reduction, absorbance at 550 nm)
Type: biochemical
Settings: NQO1 2 ng, 50 nM Compound (Table 2)
Description: In order to evaluate the activity of the synthesized compound in NQO1, the experiments were performed as follows:
The synthesized compound was dissolved in DMSO to make a 10 mM stock solution, which was further diluted with DMSO to 250 μM so as to prepare a working solution. For experimental groups, the working solution of the compound was added to an enzyme reaction solution in which 50 μL of 1.54 mM Cytochrome C solution was added to 900 μL of 50 mM Tris-HCl (pH7.5) containing 0.14% BSA. For negative control groups, DMSO not containing the compound of the invention was added to the enzyme reaction solution as above. For each experimental and control group, 20 μL of 100 ng/mL NQO1 protein was added, and then 10 μL of 20 mM NADH was added to bring up the total volume to 1 mL. The change of absorbance was measured at 550 nm for 10 minutes using 1 mL cuvette. The kinetics of reaction was measured by the increase of absorbance as the cytochrome C was reduced at 550 nm over 10 minutes. The activity of NQO1 was measured by the amount of cytochrome C that is being reduced (nmol cytochrome C that was reduced/min/ug NQO1 protein). • Absorption coefficient of Cytochrome C: 21.1 (μmol/mL)^−1cm^−1 • BSA: Bovine Serum Albumin • […]: Tris(hydroxymethyl)aminomethane hydrochloride (buffer solution) • Equipment=Cary 100 UV-Vis Spectrophotometer • The results are shown in Tables 1 to 8.

Sequence of NQO1 protein (P15559 whole entry, species assumed): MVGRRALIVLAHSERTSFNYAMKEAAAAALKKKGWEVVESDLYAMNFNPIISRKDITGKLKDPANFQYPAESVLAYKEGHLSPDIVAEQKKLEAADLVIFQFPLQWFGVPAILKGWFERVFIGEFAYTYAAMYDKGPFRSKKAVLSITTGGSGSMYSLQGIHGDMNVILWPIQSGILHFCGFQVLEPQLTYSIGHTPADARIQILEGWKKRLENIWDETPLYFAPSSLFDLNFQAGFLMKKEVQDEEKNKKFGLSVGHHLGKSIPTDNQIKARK

SMILES | NQO1 activity assay Cytochrome C reduced/min/μg NQO1 protein
Cc1nn(Cc2ccccc2)c2c1C(=O)C(=O)c1ccccc1-2 [Compound 63, 1-Benzyl-3-methyl-1H-benzo[g]indazol-4,5-dione] | 1567 nmol cytochrome C that was reduced/min/ug NQO1 protein
Cc1nn(CCc2ccccc2)c2c1C(=O)C(=O)c1ccccc1-2 [Compound 64, 3-Methyl-1-phenethyl-1H-benzo[g]indazol-4,5-dione] | 2081 nmol cytochrome C that was reduced/min/ug NQO1 protein

Same assay, conditions: NQO1 2 ng, 50 nM Compound (Table 4)

SMILES | NQO1 activity assay Cytochrome C reduced/min/μg NQO1 protein
Cc1nn(CCc2ccc(F)cc2)c2c1C(=O)C(=O)c1ccccc1-2 [Compound 65, 1-(4-Fluorophenethyl)-3-methyl-1H-benzo[g]indazol-4,5-dione] | 3714 nmol cytochrome C that was reduced/min/ug NQO1 protein
Cc1c2c(nn1CCc1ccc(F)cc1)-c1ccccc1C(=O)C2=O [Compound 66, 2-(4-Fluorophenethyl)-3-methyl-2H-benzo[g]indazol-4,5-dione] | 3001 nmol cytochrome C that was reduced/min/ug NQO1 protein

Same assay, conditions: NQO1 2 ng, 50 nM Compound (Table 7)

SMILES | NQO1 activity assay Cytochrome C reduced/min/μg NQO1 protein
COC(=O)c1ccc(S(=O)(=O)n2nc3c(c2C)C(=O)C(=O)c2ccccc2-3)cc1 [Compound 52, Methyl 4-(3-methyl-4,5-dioxo-4,5-dihydro-2H-benzo[g]indazol-2-ylsulfonyl)benzoate] | 2179 nmol cytochrome C that was reduced/min/ug NQO1 protein
Cc1c2c(nn1S(=O)(=O)C1CC1)-c1ccccc1C(=O)C2=O [Compound 53, 2-(Cyclopropylsulfonyl)-3-methyl-2H-benzo[g]indazol-4,5-dione] | 1549 nmol cytochrome C that was reduced/min/ug NQO1 protein
Cc1c2c(nn1S(=O)(=O)C1CCCC1)-c1ccccc1C(=O)C2=O [Compound 54, 2-(Cyclopentylsulfonyl)-3-methyl-2H-benzo[g]indazol-4,5-dione] | 1295 nmol cytochrome C that was reduced/min/ug NQO1 protein
Cc1c2c(nn1S(=O)(=O)c1ccc(C#N)cc1)-c1ccccc1C(=O)C2=O [Compound 55, 4-(3-Methyl-4,5-dioxo-4,5-dihydro-2H-benzo[g]indazol-2-ylsulfonyl)benzonitrile] | 1892 nmol cytochrome C that was reduced/min/ug NQO1 protein
Cc1c2c(nn1S(=O)(=O)c1ccc([N+](=O)[O-])cc1)-c1ccccc1C(=O)C2=O [Compound 56, 3-Methyl-2-(4-nitrophenylsulfonyl)-2H-benzo[g]indazol-4,5-dione] | 1839 nmol cytochrome C that was reduced/min/ug NQO1 protein
Cc1c2c(nn1S(=O)(=O)c1ccc(C(F)(F)F)cc1)-c1ccccc1C(=O)C2=O [Compound 57, 3-Methyl-2-(4-(trifluoromethyl)phenylsulfonyl)-2H-benzo[g]indazol-4,5-dione] | 1868 nmol cytochrome C that was reduced/min/ug NQO1 protein

Same assay, conditions: NQO1 2 ng, 50 nM Compound (Table 8)

SMILES | NQO1 activity assay Cytochrome C reduced/min/μg NQO1 protein
Cc1c2c(nn1S(=O)(=O)c1ccc(F)c(F)c1)-c1ccccc1C(=O)C2=O [Compound 58, 2-(3,4-Difluorophenylsulfonyl)-3-methyl-2H-benzo[g]indazol-4,5-dione] | 1913 nmol cytochrome C that was reduced/min/ug NQO1 protein
Cc1c2c(nn1S(=O)(=O)c1ccc(F)cc1F)-c1ccccc1C(=O)C2=O [Compound 59, 2-(2,4-Difluorophenylsulfonyl)-3-methyl-2H-benzo[g]indazol-4,5-dione] | 1923 nmol cytochrome C that was reduced/min/ug NQO1 protein
Cc1c2c(nn1S(=O)(=O)c1cccc3cccnc13)-c1ccccc1C(=O)C2=O [Compound 60, 3-Methyl-2-(quinolin-8-ylsulfonyl)-2H-benzo[g]indazol-4,5-dione] | 2692 nmol cytochrome C that was reduced/min/ug NQO1 protein
Cc1c2c(nn1S(=O)(=O)c1nccn1C)-c1ccccc1C(=O)C2=O [Compound 61, 3-Methyl-2-(1-methyl-1H-imidazol-2-ylsulfonyl)-2H-benzo[g]indazol-4,5-dione] | 2289 nmol cytochrome C that was reduced/min/ug NQO1 protein
Cc1c2c(nn1S(=O)(=O)N1CCOCC1)-c1ccccc1C(=O)C2=O [Compound 62, 3-Methyl-2-(morpholinosulfonyl)-2H-benzo[g]indazol-4,5-dione] | 1916 nmol cytochrome C that was reduced/min/ug NQO1 protein
Cc1nn(CCCc2ccccc2)c2c1C(=O)C(=O)c1ccccc1-2 [Compound 67, 3-Methyl-1-(3-phenylpropyl)-1H-benzo[g]indazol-4,5-dione] | 1836 nmol cytochrome C that was reduced/min/ug NQO1 protein
Cc1ccc(CCn2nc(C)c3c2-c2ccccc2C(=O)C3=O)cc1 [Compound 68, 3-Methyl-1-(4-methylphenethyl)-1H-benzo[g]indazol-4,5-dione] | 1865 nmol cytochrome C that was reduced/min/ug NQO1 protein
Cc1ccc(CCn2nc3c(c2C)C(=O)C(=O)c2ccccc2-3)cc1 [Compound 69, 3-Methyl-2-(4-methylphenethyl)-2H-benzo[g]indazol-4,5-dione] | 2460 nmol cytochrome C that was reduced/min/ug NQO1 protein
Cc1c2c(nn1CCc1ccccc1F)-c1ccccc1C(=O)C2=O [Compound 70, 2-(2-Fluorophenethyl)-3-methyl-2H-benzo[g]indazol-4,5-dione] | 1611 nmol cytochrome C that was reduced/min/ug NQO1 protein
